Results: US9957264B2 (Merck Sharp & Dohme Corp., priority 2013, dated 2018)
pIC50: −log10 of the molar value.

Experiments:
[1] = target: JAK2 (recombinant purified GST-tagged catalytic domain) (Homo sapiens (Human), UniProt O60674); assay: Jak Biochemical HTRF Assay (JAK2); conditions: [ATP] 8.5 μM
[2] = target: JAK1 (recombinant purified GST-tagged catalytic domain) (Homo sapiens (Human), UniProt P23458); assay: Jak Biochemical HTRF Assay (JAK1); conditions: [ATP] 31.8 μM
Outline: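 GST-tagged human catalytic domains of JAK1 or JAK2 phosphorylated a biotinylated peptide substrate for 120 min at room temperature after ATP addition. Reaction quenched with EDTA stop buffer containing streptavidin-Dylight 650 and Eu-pY20 antibody; HTRF 665/615 nm ratio normalized to untreated controls, IC50 from 4-parameter fit.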

Chain of JAK2 (recombinant purified GST-tagged catalytic domain) (O60674 849-1124): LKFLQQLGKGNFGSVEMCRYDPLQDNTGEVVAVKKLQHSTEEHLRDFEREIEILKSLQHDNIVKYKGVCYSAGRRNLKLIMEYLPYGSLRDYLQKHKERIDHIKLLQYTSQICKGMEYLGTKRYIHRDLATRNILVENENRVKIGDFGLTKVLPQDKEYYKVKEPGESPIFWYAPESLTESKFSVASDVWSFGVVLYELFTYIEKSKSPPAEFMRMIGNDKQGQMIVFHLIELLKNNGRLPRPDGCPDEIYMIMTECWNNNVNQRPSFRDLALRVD
Chain of JAK1 (recombinant purified GST-tagged catalytic domain) (P23458 875-1153): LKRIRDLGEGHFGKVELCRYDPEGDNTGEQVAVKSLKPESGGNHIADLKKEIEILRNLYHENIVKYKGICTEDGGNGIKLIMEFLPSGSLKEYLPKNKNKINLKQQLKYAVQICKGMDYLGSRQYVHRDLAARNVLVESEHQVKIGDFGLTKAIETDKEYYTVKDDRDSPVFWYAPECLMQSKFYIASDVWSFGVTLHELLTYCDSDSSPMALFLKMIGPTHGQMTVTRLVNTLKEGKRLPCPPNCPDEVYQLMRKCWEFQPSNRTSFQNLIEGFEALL

Row | Compound | pIC50 [1] | pIC50 [2]
1 | CN(C)S(=O)(=O)c1ccc(Nc2nn(C3(CC#N)CCN(Cc4ccccc4)CC3)c3cc[nH]c(=O)c23)cc1 [Example 8-1, 4-({1-[1-benzyl-4-(cyanomethyl)piperidin-4-yl]-4-oxo-4,5-dihydro-1H-pyrazolo[4,3-c]pyridin-3-yl}amino)-N,N-dimethylbenzenesulfonamide] | 9.42 | 9.77
2 | CN(C)S(=O)(=O)c1ccc(Nc2nn(C3(CC#N)CCN(C(=O)CN4CCCC4=O)CC3)c3cc[nH]c(=O)c23)cc1 [Example 9-19, 4-[(1-{4-(cyanomethyl)-1-[(2-oxopyrrolidin-1-yl)acetyl]piperidin-4-yl}-4-oxo-4,5-dihydro-1H-pyrazolo[4,3-c]pyridin-3-yl)amino]-N,N-dimethylbenzenesulfonamide] | 8.50 | 9.59
3 | CC(c1ccc(Nc2nn([C@]3(CC#N)CC[C@@H](C(=O)OC(C)(C)C)OC3)c3cc[nH]c(=O)c23)cc1)N1CCCC1 (single isomer, unassigned) [Example 5-212, (2S,5S)-tert-butyl 5-(cyanomethyl)-5-(4-oxo-3-((4-((S or R)-1-(pyrrolidin-1-yl)ethyl)phenyl)amino)-4,5-dihydro-1H-pyrazolo [4,3-c]pyridin-1-yl) tetrahydro-2H-pyran-2-carboxylate] | 9.82 | 9.66
4 | Cc1cc(Nc2nn([C@]3(CC#N)CC[C@@H](C(=O)OC(C)(C)C)OC3)c3cc[nH]c(=O)c23)ccc1C(=O)N(C)CC(F)(F)F [Example 20-15, (2S,5S)-tert-butyl 5-(cyanomethyl)-5-(3-((3-methyl-4-(methyl(2,2,2-trifluoroethyl)carbamoyl)phenyl)amino)-4-oxo-4,5-dihydro-1H-pyrazolo[4,3-c]pyridin-1-yl)tetrahydro-2H-pyran-2-carboxylate] | 9.29 | 9.72
5 | CN(C(C)(C)C(=O)OC(C)(C)C)S(=O)(=O)c1ccc(Nc2nn(C3(CC#N)CCCC3)c3cc[nH]c(=O)c23)cc1 [Example 5-137, tert-butyl 2-(4-((1-(1-(cyanomethyl)cyclopentyl)-4-oxo-4,5-dihydro-1H-pyrazolo[4,3-c]pyridin-3-yl)amino)-N-methylphenylsulfonamido)-2-methylpropanoate] | 8.23 | 8.72
6 | CC(C)(C)OC(=O)CN1Cc2cc(Nc3nn([C@]4(CC#N)CCCOC4)c4cc[nH]c(=O)c34)ccc2S1(=O)=O [Example 5-185, tert-butyl [5-({1-[(3S)-3-(cyanomethyl)tetrahydro-2H-pyran-3-yl]-4-oxo-4,5-dihydro-1H-pyrazolo[4,3-c]pyridin-3-yl}amino)-1,1-dioxido-1,2-benzisothiazol-2(3H)-yl]acetate] | 8.82 | 10.10
7 | CC(C)(C)N[C@H](c1ccc(Nc2nn([C@@]3(CC#N)CCOC[C@H]3F)c3cc[nH]c(=O)c23)cc1)C(F)(F)F (single isomer, unassigned) [Example 5-267, 2-((3S,4S or 3R,4R)-4-(3-((4-((R or S)-1-(tert-butylamino)-2,2,2-trifluoroethyl)phenyl)amino)-4-oxo-4,5-dihydro-1H-pyrazolo[4,3-c]pyridin-1-yl)-3-fluorotetrahydro-2H-pyran-4-yl)acetonitrile] | 8.40 | 8.62

Second part, the molecule after the results:

Row | pIC50 [1] | pIC50 [2] | Compound
8 | 9.28 | 9.80 | N#CC[C@@]1(n2nc(Nc3ccc(S(=O)(=O)C4CCCC4)cc3)c3c(=O)[nH]ccc32)CCCOC1 [Example 5-191, [(3S)-3-(3-{[4-(cyclopentylsulfonyl)phenyl]amino}-4-oxo-4,5-dihydro-1H-pyrazolo[4,3-c]pyridin-1-yl)tetrahydro-2H-pyran-3-yl]acetonitrile]
9 | 9.85 | 9.82 | CC(C)(C)OC(=O)N1CC[C@](CC#N)(n2nc(Nc3ccc([C@@H](O)C(F)(F)F)cc3)c3c(=O)[nH]ccc32)[C@H](F)C1 (single isomer, unassigned) [Example 5-21, tert-butyl (3R,4R)-4-(cyanomethyl)-3-fluoro-4-[4-oxo-3-({4-[(1R or 1S)-2,2,2-trifluoro-1-hydroxyethyl]phenyl}amino)-4,5-dihydro-1H-pyrazolo[4,3-c]pyridin-1-yl]piperidine-1-carboxylate]
10 | 8.95 | 9.37 | CC(C)(C)OC(=O)N1CCC(CC#N)(n2nc(Nc3ccc([C@@H](O)C(F)(F)F)cc3)c3c(=O)[nH]ccc32)CC1 (single isomer, unassigned) [Example 5-3, tert-butyl 4-(cyanomethyl)-4-[4-oxo-3-({4-[(1R or 1S)-2,2,2-trifluoro-1-hydroxyethyl]phenyl}amino)-4,5-dihydro-1H-pyrazolo[4,3-c]pyridin-1-yl]piperidine-1-carboxylate]
11 | 8.56 | 8.65 | Cc1cc(Nc2nn([C@@]3(CC#N)CCOC[C@H]3F)c3cc[nH]c(=O)c23)ccc1C(=O)N1CCSCC1 (single isomer, unassigned) [Example 5-261, 2-((3S,4S or 3R,4R)-3-fluoro-4-(3-(3-methyl-4-(thiomorpholine-4-carbonyl)phenylamino)-4-oxo-4,5-dihydropyrazolo[4,3-c]pyridin-1-yl)-tetrahydro-2H-pyran-4-yl)acetonitrile]
12 | 9.46 | 9.64 | Cc1cc(Nc2nn([C@]3(CC#N)CC[C@@H](C(=O)OC(C)(C)C)OC3)c3cc[nH]c(=O)c23)ccc1C(=O)N1CCOC(C)C1 (single isomer, unassigned) [Example 20-11, (2S,5S)-tert-butyl 5-(cyanomethyl)-5-(3-((3-methyl-4-((S or R)-2-methylmorpholine-4-carbonyl)phenyl)amino)-4-oxo-4,5-dihydro-1H-pyrazolo[4,3-c]pyridin-1-yl)tetrahydro-2H-pyran-2-carboxylate]
13 | 8.74 | 9.08 | CN(C)S(=O)(=O)c1ccc(Nc2nn([C@]3(CC#N)COCC[C@@H]3F)c3cc[nH]c(=O)c23)cc1 (single isomer, unassigned) [Example 5-180, 4-({1-[(3R,4S or 3S,4R)-3-(cyanomethyl)-4-fluorotetrahydro-2H-pyran-3-yl]-4-oxo-4,5-dihydro-1H-pyrazolo[4,3-c]pyridin-3-yl}amino)-N,N-dimethylbenzene-sulfonamide]
14 | 8.70 | 8.92 | CN(C)S(=O)(=O)c1cccc(Nc2nn(C3(CC#N)CCN(Cc4cccnc4)CC3)c3cc[nH]c(=O)c23)c1 [Example 8-19, 3-({1-[4-(cyanomethyl)-1-(pyridin-3-ylmethyl)piperidin-4-yl]-4-oxo-4,5-dihydro-1H-pyrazolo[4,3-c]pyridin-3-yl}amino)-N,N-dimethylbenzenesulfonamide]
15 | 9.26 | 9.64 | N#CC[C@@]1(n2nc(Nc3ccc(S(=O)(=O)N4CCC4)cc3)c3c(=O)[nH]ccc32)CCCOC1 [Example 5-105, [(3S)-3-(3-{[4-(azetidin-1-ylsulfonyl)phenyl]amino}-4-oxo-4,5-dihydro-1H-pyrazolo[4,3-c]pyridin-1-yl)tetrahydro-2H-pyran-3-yl]acetonitrile]
16 | 8.71 | 9.01 | CO[C@@H](c1ccc(Nc2nn(C3(CC#N)CCN(C(=O)OC(C)(C)C)CC3)c3cc[nH]c(=O)c23)cc1)C(F)(F)F (single isomer, unassigned) [Example 21-10, tert-butyl 4-(cyanomethyl)-4-[4-oxo-3-({4-[(1S or 1R)-2,2,2-trifluoro-1-methoxyethyl]phenyl}amino)-4,5-dihydro-1H-pyrazolo[4,3-c]pyridin-1-yl]piperidine-1-carboxylate]
